From ChEMBL document CHEMBL5726876, “NHE3-binding compounds and methods for inhibiting phosphate transport” (2019)
Where “and” joins values, the source holds several entries; their conditions need not be identical. Identical values can stand only once.

Assay: Cell-based activity under Prompt Conditions: Cell-based activity under Prompt Conditions. Rat or human NHE3-mediated Na+-dependent H+ antiport was measured using a modification of the pH sensitive dye method originally reported by Paradiso (PNAS USA. 81:7436-7440, 1984). Opossum kidney (OK) cells were obtained from the ATCC and propagated per their instructions. The rat NHE3 gene (GenBank M85300) or the human NHE3 gene (GenBank NM_004174.1) was introduced into OK cells via electroporation, and cells were seeded into 96 well plates and grown overnight. Medium was aspirated from the wells, cells were washed twice with NaCl-HEPES buffer (100 mM NaCl, 50 mM HEPES, 10 mM glucose, 5 mM KCl, 2 mM CaCl2, 1 mM MgCl2, pH 7.4), then incubated for 30 min at room temperature with NH4Cl-HEPES buffer (20 mM NH4Cl, 80 mM NaCl, 50 mM HEPES, 5 mM KCl, 2 mM CaCl2, 1 mM MgCl2, pH 7.4) containing 5 μM bis(acetoxymethyl) 3,3′-(3′,6′-bis(acetoxymethoxy)-5-((acetoxymethoxy)carbonyl)-3-oxo-3H-spiro[isobenzofuran-1,9′-xanthene]-2′,7′-diyl)dipropanoate (BCECF-AM).Cells were washed twice with Ammonium free, Na+-free HEPES (100 mM choline, 50 mM HEPES, 10 mM glucose, 5 mM KCl, 2 mM CaCl2, 1 mM MgCl2, pH 7.4) and incubated in the same buffer for 10 minutes at room temperature to lower intracellular pH. […] Initial rates were plotted as the average 2 or more replicates, and pIC50 values were estimated using GraphPad Prism.

Compound | IC50
CN1Cc2c(Cl)cc(Cl)cc2C(c2cccc(S(N)(=O)=O)c2)C1 (configuration not stated) | 251 nM
NCCOCCOCCN1CCN(c2ccc(-c3nc(N=C(N)N)nc4ccc(Cl)cc34)cc2)CC1 | 100 nM
N=C(N)Nc1nc(-c2ccc(N3CCN(CCOCCOCCOCCNC(=O)NCCOCCOCCNC(=O)NCCOCCOCCOCCN4CCN(c5ccc(-c6nc(NC(=N)N)nc7ccc(Cl)cc67)cc5)CC4)CC3)cc2)c2cc(Cl)ccc2n1 | 50.1 nM
C/C(=C\c1cc(F)c(Oc2ccc(S(=O)(=O)NCCOCCOCCOCCNC(=O)N3CCN(C(=O)NCCOCCOCCOCCNS(=O)(=O)c4ccc(Oc5c(F)cc(/C=C(\C)C(=O)N=C(N)N)cc5F)cc4)CC3)cc2)c(F)c1)C(=O)N=C(N)N | 20 nM
NC(N)=Nc1nc(-c2ccc(N3CCN(CCOCCOCCNC(=O)[C@H](O)[C@@H](O)C(=O)NCCOCCOCCN4CCN(c5ccc(-c6nc(N=C(N)N)nc7ccc(Cl)cc67)cc5)CC4)CC3)cc2)c2cc(Cl)ccc2n1 | 79.4 nM
NCCOCCOCCN1CCN(c2cccc(-c3nc(N=C(N)N)nc4ccc(Cl)cc34)c2)CC1 | 200 nM
N=C(N)Nc1nc(-c2ccc(S(=O)(=O)NCCOCCOCCN)cc2)c2cc(Cl)ccc2n1 | 126 nM
N=C(N)Nc1nc(-c2cccc(S(=O)(=O)NCCOCCOCCN)c2)c2cc(Cl)ccc2n1 | 501 nM
C/C(=C\c1cc(F)c(Oc2ccc(S(=O)(=O)NCCOCCOCCOCCN)cc2)c(F)c1)C(=O)N=C(N)N | 126 nM
NCCOCCOCCOc1ccc(-c2nc(N=C(N)N)nc3ccc(Cl)cc23)cc1 | 112 nM
N=C(N)Nc1nc(-c2cccc(S(=O)(=O)NCCOCCOCCOCCN)c2)c2cc(Cl)ccc2n1 | 794 nM
C/C(=C\c1cc(F)c(Oc2ccc(S(=O)(=O)NCCOCCOCCOCCNC(=O)OCCOCCOCCOC(=O)NCCOCCOCCOCCNS(=O)(=O)c3ccc(Oc4c(F)cc(/C=C(\C)C(=O)N=C(N)N)cc4F)cc3)cc2)c(F)c1)C(=O)N=C(N)N | 31.6 nM
CN(CC(=O)NCCOCCOCCNS(=O)(=O)c1ccc(O[C@H]2c3ccccc3C[C@@H]2N2CCCCC2)cc1)CC(=O)NCCOCCOCCNS(=O)(=O)c1ccc(O[C@H]2c3ccccc3C[C@@H]2N2CCCCC2)cc1 | 35.5 nM
N=C(N)Nc1nc(-c2ccc(OCCOCCOCCOCCN)cc2)c2cc(Cl)ccc2n1 | 31.6 nM
NCCOCCOCCOCCN1CCN(c2ccc(-c3nc(N=C(N)N)nc4ccc(Cl)cc34)cc2)CC1 | 56.2 nM and 126 nM
CN1Cc2c(Cl)cc(Cl)cc2[C@H](c2cccc(S(=O)(=O)NCCOCCOCCOCCN)c2)C1 | 45.7 nM
C/C(=C\c1cc(F)c(Oc2ccc(S(=O)(=O)NCCOCCOCCOCCNC(=O)CN(CCN(CC(=O)O)CC(=O)NCCOCCOCCOCCNS(=O)(=O)c3ccc(Oc4c(F)cc(/C=C(\C)C(=O)N=C(N)N)cc4F)cc3)CC(=O)O)cc2)c(F)c1)C(=O)N=C(N)N | 31.6 nM
C/C(=C\c1cc(F)c(Oc2ccc(S(=O)(=O)NCCOCCOCCOCCNC(=O)N(C)CCCCN(C)C(=O)NCCOCCOCCOCCNS(=O)(=O)c3ccc(Oc4c(F)cc(/C=C(\C)C(=O)N=C(N)N)cc4F)cc3)cc2)c(F)c1)C(=O)N=C(N)N | 15.8 nM
CN1Cc2c(Cl)cc(Cl)cc2[C@@H](c2cccc(S(=O)(=O)NCCOCCOCCNC(=O)NCCCCNC(=O)NCCOCCOCCNS(=O)(=O)c3cccc([C@@H]4CN(C)Cc5c(Cl)cc(Cl)cc54)c3)c2)C1 | 50.1 nM and < 10000 nM
C/C(=C\c1cc(F)c(Oc2ccc(S(=O)(=O)NCCOCCOCCOCCNC(=O)[C@H](O)[C@@H](O)C(=O)NCCOCCOCCOCCNS(=O)(=O)c3ccc(Oc4c(F)cc(/C=C(\C)C(=O)N=C(N)N)cc4F)cc3)cc2)c(F)c1)C(=O)N=C(N)N | 126 nM
C/C(=C\c1cc(F)c(Oc2ccc(S(=O)(=O)NCCOCCOCCOCCNCc3ccc(CNCCOCCOCCOCCNS(=O)(=O)c4ccc(Oc5c(F)cc(/C=C(\C)C(=O)N=C(N)N)cc5F)cc4)cc3)cc2)c(F)c1)C(=O)N=C(N)N | 200 nM

Compound | IC50
C/C(=C\c1cc(F)c(Oc2ccc(S(=O)(=O)NCCOCCOCCOCCNC(=O)NCCCCNC(=O)NCCOCCOCCOCCNS(=O)(=O)c3ccc(Oc4c(F)cc(/C=C(\C)C(=O)N=C(N)N)cc4F)cc3)cc2)c(F)c1)C(=O)N=C(N)N | 31.6 nM
C/C(=C\c1cc(F)c(Oc2ccc(S(=O)(=O)NCCOCCOCCOCCNC(=O)NCCOCCOCCNC(=O)NCCOCCOCCOCCNS(=O)(=O)c3ccc(Oc4c(F)cc(/C=C(\C)C(=O)N=C(N)N)cc4F)cc3)cc2)c(F)c1)C(=O)N=C(N)N | 100 nM
NCCOCCOCCOc1cccc(-c2nc(N=C(N)N)nc3ccc(Cl)cc23)c1 | 224 nM
COCCNS(=O)(=O)c1cccc(C2CN(C)Cc3c(Cl)cc(Cl)cc32)c1 (configuration not stated) | 200 nM
C/C(=C\c1cc(F)c(Oc2ccc(S(=O)(=O)NCCOCCOCCOCCNC(=O)COCC(=O)NCCOCCOCCOCCNS(=O)(=O)c3ccc(Oc4c(F)cc(/C=C(\C)C(=O)N=C(N)N)cc4F)cc3)cc2)c(F)c1)C(=O)N=C(N)N | 50.1 nM
CN1Cc2c(Cl)cc(Cl)cc2[C@H](c2cccc(S(=O)(=O)NCCOCCOCCOCCNC(=O)COCC(=O)NCCOCCOCCOc3cccc(-c4nc(NC(=N)N)nc5ccc(Cl)cc45)c3)c2)C1 | 141 nM
COCCNC(=O)CN(C)CC(=O)NCCOCCOCCNC(=O)NCCOCCOCCOCCOc1ccc(-c2nc(NC(=N)N)nc3ccc(Cl)cc23)cc1 | 12.6 nM
CNC(=O)CN(CCN(CC(=O)O)CC(=O)NCCOCCOCCNC(=O)NCCOCCOCCOCCOc1cccc(-c2nc(NC(=N)N)nc3ccc(Cl)cc23)c1)CC(=O)O | 20 nM
COCCOCCOCCOCCC(=O)NCCOCCOCCOCCN1CCN(c2cccc(-c3nc(NC(=N)N)nc4ccc(Cl)cc34)c2)CC1 | 50.1 nM
CCOCCOCCOCCNC(=O)CN(CCN(CC(=O)O)CC(=O)NCCOCCOCCOCCNS(=O)(=O)c1ccc(O[C@H]2c3ccccc3C[C@@H]2N2CCCCC2)cc1)CC(=O)O | 22.4 nM
COCCNC(=O)CN(C)CC(=O)NCCOCCOCCNC(=O)NCCOCCOCCOCCN1CCN(c2ccc(-c3nc(N=C(N)N)nc4ccc(Cl)cc34)cc2)CC1 | 31.6 nM
COCCNC(=O)CN(C)CC(=O)NCCOCCOCCNC(=O)NCCOCCOCCOCCN1CCN(c2cccc(-c3nc(NC(=N)N)nc4ccc(Cl)cc34)c2)CC1 | 20 nM
CCNC(=O)CCOCCOCCOCCOCCOCCC(=O)NCCOCCOCCOCCN1CCN(c2ccc(-c3nc(NC(=N)N)nc4ccc(Cl)cc34)cc2)CC1 | 20.9 nM
COCCOCCOCCC(=O)NCCOCCOCCOCCN1CCN(c2cccc(-c3nc(NC(=N)N)nc4ccc(Cl)cc34)c2)CC1 | 135 nM
CCCOCNC(=O)NCCCCNC(=O)NCCOCCOCCNC(=O)NCCOCCOCCN1CCN(c2cccc(-c3nc(N=C(N)N)nc4ccc(Cl)cc34)c2)CC1 | 25.1 nM
CN(CCN(CC(=O)O)CC(=O)NCCOCCOCCNC(=O)NCCOCCOCCOCCN1CCN(c2ccc(-c3nc(N=C(N)N)nc4ccc(Cl)cc34)cc2)CC1)CC(=O)O | 15.8 nM
CN(CCN(CC(=O)O)CC(=O)NCCOCCOCCNC(=O)NCCOCCOCCOCCOc1ccc(-c2nc(NC(=N)N)nc3ccc(Cl)cc23)cc1)CC(=O)O | 10 nM
CCCCNC(=O)NCCOCCOCCNC(=O)NCCOCCOCCOCCOc1ccc(-c2nc(NC(=N)N)nc3ccc(Cl)cc23)cc1 | 25.1 nM
CN(C)CC(=O)NCCOCCOCCNC(=O)NCCOCCOCCN1CCN(c2cccc(-c3nc(NC(=N)N)nc4ccc(Cl)cc34)c2)CC1 | 39.8 nM
COCCNC(=O)CN(C)CC(=O)NCCOCCOCCNC(=O)NCCOCCOCCOCCOc1cccc(-c2nc(NC(=N)N)nc3ccc(Cl)cc23)c1 | 31.6 nM
CCNC(=O)CN(C)CC(=O)NCCOCCOCCOCCNS(=O)(=O)c1ccc(Oc2c(F)cc(/C=C(\C)C(=O)N=C(N)N)cc2F)cc1 | 316 nM
